Test results taken from ChEMBL document CHEMBL1147306, “Studies on inhibitors of skin tumor promotion, VI. Inhibitory effects of quinones on Epstein-Barr virus activation” (J Nat Prod, 1989).
Calls of active or inactive are those of the source. The rule behind the calls is not given here.

Key:
Raji [1] = test: Inhibition of TPA-induced EBV-early antigen activation in human Raji cells at 10 molar ratio after 48 hrs by indirect immunofluorescence technique relative to TPA; type: cell-based; details: human gammaherpesvirus 4
Raji [2] = test: Inhibition of TPA-induced EBV-early antigen activation in human Raji cells at 100 molar ratio after 48 hrs by indirect immunofluorescence technique relative to TPA; type: cell-based; details: human gammaherpesvirus 4
Raji [3] = test: Inhibition of TPA-induced EBV-early antigen activation in human Raji cells at 500 molar ratio after 48 hrs by indirect immunofluorescence technique relative to TPA; type: cell-based; details: human gammaherpesvirus 4
[4] = Cytotoxicity against human Raji cells assessed as cell viability at 10 molar ratio; type: cell-based; details: read-out: Activity
[5] = Cytotoxicity against human Raji cells assessed as cell viability at 100 molar ratio; type: cell-based; details: read-out: Activity
[6] = Cytotoxicity against human Raji cells assessed as cell viability at 1000 molar ratio; type: cell-based; details: read-out: Activity
Mus musculus = species on record: Mus musculus; test: Displacement of [3H]TPA from TPA receptor in ICR mouse dorsal epidermis
[7] = Cytotoxicity against human Raji cells assessed as cell viability at 500 molar ratio; type: cell-based; details: read-out: Activity

Row | SMILES | EBV-EA activation % of TPA control (Raji [1]) [%] | EBV-EA activation % of TPA control (Raji [2]) [%] | EBV-EA activation % of TPA control (Raji [3]) [%] | viability at 10 molar ratio [4] [%] | viability at 100 molar ratio [5] [%] | viability at 1000 molar ratio [6] [%] | Activity (Mus musculus) | viability at 500 molar ratio [7] [%]
1 | CC(=O)c1cc2c(o1)C(=O)c1ccccc1C2=O [NAPABUCASIN] | 32.7 | 0 | 0 | > 80 | 70 | 0 | inactive | 0
2 | Cc1ccnc2c1C(=O)c1c(O)ccc(O)c1C2=O | 88.6 | 52.1 | 23.1 | > 80 | > 80 | 60 | inactive | 60
3 | O=C1c2ccc3c(c2C(=O)c2cccc(O)c21)OCO3 | 79.5 | 53.8 | 36.5 | > 80 | > 80 | > 80 | inactive | > 80
4 | Cc1ccc2c(n1)C(=O)c1c(O)ccc(O)c1C2=O | 86 | 43.8 | 13.5 | > 80 | > 80 | 10 | inactive | 60
5 | CCCCCCCCCCCCCC(=O)O[C@@H]1[C@@H](C)[C@@]2(O)[C@@H](C=C(CO)C[C@]3(O)C(=O)C(C)=C[C@@H]23)[C@@H]2C(C)(C)[C@]12OC(C)=O |  |  |  |  |  |  | Active | 
6 | COc1cccc2c1C(=O)c1ccc3c(c1C2=O)OCO3 | 100 | 33 | 32.7 | > 80 | > 80 | > 80 | inactive | > 80
7 | CC(C)=CC[C@@H](O)C1=CC(=O)c2c(O)ccc(O)c2C1=O [SHIKONIN] | 31.5 | 15.8 | 0 | > 80 | 50 | 0 | inactive | 10
8 | COc1cccc2c1C(=O)c1c(ccc3c1OCO3)C2=O | 100 | 82.5 | 57.6 | > 80 | > 80 | 60 |  | > 80
